This experiment deals with T1, Porcine DPP-IV (Sus scrofa, UniProt P22411).
T1 construct: purchased Sigma-Aldrich Germany
Briefly: Assay of DPP-IV enzyme inhibitory activity (spectrophotometric, Gly-Pro-pNA cleavage). To be noted: Porcine DPP-IV, Gly-Pro-pNA substrate, 30° C.; mean ± SD of three experiments except compound Nos. 133 & 139; read-out: IC50 (μM) Mean ± SD, inhibitory activity on DPP-IV enzyme activity. It counts as biochemical. Here is the method:
Assay of DPP-IV Enzyme Inhibitory Activity.
The assay method is a modified method (as described by Welch et al, 1998) based on spectrophotometric determination of the product formed by penultimate proline cleaving activity of the enzyme.
Assay protocol involves incubation of the enzyme dipeptidyl peptidase IV with the test substance at 30° C. for 30 min followed by addition of this reaction mixture to the substrate Gly-Pro-pNA that was equilibrated at 30° C. for 2 min. The enzyme cleaves the substrate at penultimate proline and releases p-nitroanilide, the optical density of which is measured at 385 nm. The formation of p-nitroanilide will be reduced in the presence of inhibitor. […] The activity of molecule is expressed in terms of % inhibition. At least three different concentrations were tried out for each of the test substances. The percentage inhibitions for each of the concentrations were plotted and an IC50 of the test compound was worked out. The enzyme inhibitory activity of different test compounds were compared based on the IC50 values.
The percentage inhibition % I, is calculated using the formula:
% I=[(1−vi/v0)]*100 where vi and v0 are the Vmax values with and without the test substance, respectively.
Substrate solution: 0.5 mM in 45 mM phosphate buffer
Substrate used: Gly-Pro-p-nitroanilide (Source: Sigma-Aldrich Co. Germany)
3.288 mg substrate in 1 ml 45 mM phosphate buffer was prepared as stock solution. 0.25 ml of this stock solution was diluted to 5 ml to get 0.5 mM substrate solution (90 μl to be added in each well). The stock solution of the substrate was used within three days of preparation.
Enzyme solution: Porcine DPP-IV (Sigma-Aldrich Germany) was used throughout the study. 0.4 mU in 80 μl of Tris. HCl buffer was prepared. Fresh solutions were prepared everyday for the assays.
Various concentrations of inhibitor were used: 0.391 μM, 0.781 μM, and 3.125 μM. Solutions of inhibitor were prepared and used on the same day.
280 μl of enzyme solution (0.4-mU/80 μl in Tris HCl buffer) was added to the eppendorf containing 70 μl solution of inhibitor or vehicle and mixed. This reaction mixture was incubated for 30 min at 30° C. The 96 well plate containing substrate solution was thermally equilibrated in the spectrophotometer for 2 min at 30° C. Later 100 μl of the enzyme-inhibitor pre-incubation solution was added to respective wells in a 96 well plate. Each concentration of the inhibitor was tested in triplicates.
The rate of change in UV absorbance (in presence of various concentrations of the inhibitor) was measured at 385 nm, with respect to wells containing only 0.5 mM substrate in 45 mM phosphate buffer as blank at every 10 min for 2 hours after adding enzyme-inhibitor mixture to wells containing substrate solution.

SMILES strings stand for the structures. Counter-ions that a name gives are not always drawn.

T1 sequence (P22411 whole entry): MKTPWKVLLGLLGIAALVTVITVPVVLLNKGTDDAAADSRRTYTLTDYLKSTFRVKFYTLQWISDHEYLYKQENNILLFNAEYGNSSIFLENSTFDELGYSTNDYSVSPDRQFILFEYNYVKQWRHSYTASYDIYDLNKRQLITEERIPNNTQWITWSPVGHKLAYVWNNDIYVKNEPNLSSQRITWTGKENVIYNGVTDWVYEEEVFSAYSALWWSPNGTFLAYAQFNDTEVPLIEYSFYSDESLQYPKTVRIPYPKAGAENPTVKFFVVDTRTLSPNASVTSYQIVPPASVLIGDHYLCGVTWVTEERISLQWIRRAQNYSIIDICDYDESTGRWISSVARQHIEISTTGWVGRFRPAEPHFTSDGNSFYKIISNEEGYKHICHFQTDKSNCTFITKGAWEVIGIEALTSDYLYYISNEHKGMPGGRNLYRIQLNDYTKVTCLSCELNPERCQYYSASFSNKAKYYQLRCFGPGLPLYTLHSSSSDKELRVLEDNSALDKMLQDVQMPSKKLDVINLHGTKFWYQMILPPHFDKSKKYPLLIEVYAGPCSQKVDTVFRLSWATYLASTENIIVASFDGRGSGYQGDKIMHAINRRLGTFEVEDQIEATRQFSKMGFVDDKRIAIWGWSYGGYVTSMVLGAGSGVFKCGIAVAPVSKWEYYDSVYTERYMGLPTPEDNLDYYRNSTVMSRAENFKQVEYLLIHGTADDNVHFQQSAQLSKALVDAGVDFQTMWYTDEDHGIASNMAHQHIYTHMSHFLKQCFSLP

In the case of `N#CC1CSCN1C(=O)CN(N)C1CCN(c2ccc(C(F)(F)F)cn2)CC1` (stereo not shown) [Compound No. 77, 3-[1-Oxo-2-(1-(1-(5-trifluoromethyl-2-pyridinyl)-piperidin-4-yl) hydrazino)]ethyl-4-cyano thiazolidine bis trifluoroacetate], the IC50 (as a rule, the concentration at which inhibition is half-maximal) turned out to be 0.67 ± 0.06 µM.

As for `N#CC1CSCN1C(=O)CN(N)C1CCN(Cc2ccc([N+](=O)[O-])cc2)CC1` (stereo not shown) [Compound No. 61, 3-[1-Oxo-2-(1-(1-(4-nitrophenylmethyl)-piperidin-4-yl) hydrazino]ethyl-4-cyanothiazolidine trifluoroacetate], the IC50 turned out to be 0.7 ± 0.03 µM.

In the case of `N#CC1CSCN1C(=O)CN(N)C1CCN(CC(=O)Nc2ccccn2)CC1` (stereo not shown) [compound 136, 3-[1-oxo-2-(1-(1-(2-oxo-2-(pyridin-2-yl)aminoethyl)piperidine-4-yl))hydrazino]ethyl-4-cyanothiazolidine, tris-trifluoroacetate], the IC50 was 0.21 ± 0.004 µM.

Turning to `CC(=O)N1CCC(N(N)CC(=O)N2CSCC2C#N)CC1` (stereo not shown) [Compound No. 66, 3-[1-Oxo-2-(1-(1-acetyl)-piperidin-4-yl)hydrazino]ethyl-4-cyanothiazolidine trifluoroacetate], the IC50 came to 1.53 ± 0.01 µM.

Turning to `CC(C)OCCCNC(=O)CN1CCC(N(N)CC(=O)N2CSCC2C#N)CC1` (stereo not shown) [compound 126], the IC50 came to 0.468 ± 0.005 µM.

For the molecule `CC(C)N1CCC(N(N)CC(=O)N2CSCC2C#N)CC1` (stereo not shown) [Compound No. 51, 3-[1-Oxo-2-(1-isopropyl-4-piperidinyl) hydrazino)]ethyl-4-cyano thiazolidine trifluoroacetate], the IC50 is 3.5 ± 0.06 µM.

For the molecule `CC(=O)NN(CC(=O)N1CSCC1C#N)C1CCC(C)CC1` (stereo not shown) [Compound No. 74, 3-[1-Oxo-2-(1-(4-methylcyclohexyl)-2-acetyl) hydrazino]ethyl-4-cyanothiazolidine], the IC50 worked out at 97.7 ± 13.1 µM.

As to `CC1CCC(NNCC(=O)N2CCCC2C#N)CC1` (stereo not shown) [Compound No. 26, 1-[1-Oxo-2-((4-Methyl)cyclohexyl)hydrazino)]ethyl-2-cyano pyrrolidine trifluoroacetate], the IC50 came to 10 ± 0.79 µM.

As for `N#CC1CCCN1C(=O)CN(N)c1ccccc1` (stereo not shown) [Compound No. 3, 1-[1-Oxo-2-((1-phenyl)-hydrazino)] ethyl-2-cyano pyrrolidine trifluoroacetate], the IC50 was 34.1 ± 4.57 µM.

On to `CCCC1CCC(N(N)CC(=O)N2CSCC2C#N)CC1` (stereo not shown) [Compound No. 64, 3-[1-Oxo-2-(1-(4-npropylcyclohexyl)hydrazino)]ethyl-4-cyanothiazolidine trifluoroacetate], for which the IC50 came out at 0.34 ± 0.07 µM.

As to `COC(=O)NN(CC(=O)N1CSCC1C#N)C1CCN(CC(=O)Nc2ccc(Cl)cn2)CC1` (stereo not shown) [compound 133, 3-[1-oxo-2-(1-(1-(2-oxo-2-(5-chloropyridin-2-yl)aminoethyl)piperidine-4-yl)-2-methoxycarbonyl)hydrazino]ethyl-4-cyanothiazolidine, trihydrochloride], the IC50 turned out to be 40.4 ± 6.4 µM.

For `CC1CC(N(N)CC(=O)N2CSCC2C#N)CC(C)(C)C1` (stereo not shown) [Compound No. 79, 3-[1-Oxo-2-(1-(3,3,5-trimethylcyclohexyl)-hydrazino)]ethyl-4-cyanothiazolidine trifluoroacetate], the IC50 amounted to 0.92 ± 0.03 µM.

Take `N#CC1CSCN1C(=O)CN(N)C1CCN(C(=O)CN2CCOCC2)CC1` (stereo not shown) [Compound No. 110, 3-[1-oxo-2-[1-(1-(1-oxo-2-(morpholin-4-yl)ethyl)piperidin-4-yl)]hydrazino]ethyl-4-cyanothiazolidine bis-trifluoroacetate]: the IC50 was 0.83 ± 0.05 µM.

In the case of `CC(C)(C)C1CCC(N(N)CC(=O)N2CSCC2C#N)CC1` (stereo not shown) [Compound No. 49, 3-[1-Oxo-2-(1-(4-tertbutylcyclohexyl)hydrazino)]ethyl-4-cyanothiazolidine trifluoroacetate], the IC50 was 1.04 ± 0.25 µM.

Regarding `N#CC1CSCN1C(=O)CN(N)Cc1ccccc1` (stereo not shown) [Compound No. 16, 3-[1-Oxo-2-((1-phenylmethyl)hydrazino)]ethyl-4-cyano thiazolidine trifluoroacetate], the IC50 was 9.29 ± 0.64 µM.

For the molecule `N#CC1CCCN1C(=O)CN(N)C1CCN(CC(=O)Nc2ccc(Cl)cn2)CC1` (stereo not shown) [compound 124, 3-[1-oxo-2-(1-(1-(2-oxo-2-(5-chloropyridin-2-yl)aminoethyl)piperidin-4-yl))hydrazino]ethyl-2-cyanopyrrolidine, tris-trifluoroacetate], the IC50 was 3.7 ± 0.5 µM.

Turning to `CC1CCC(CN(N)CC(=O)N2CCCC2C#N)CC1` (stereo not shown) [Compound No. 39, 1-[1-Oxo-2-(1-(4-methylcyclohexylmethyl)hydrazino)]ethyl-2-cyanopyrrolidine trifluoroacetate], the IC50 worked out at 50.4 ± 4.59 µM.

`N#CC1CSCN1C(=O)CN(N)C1CCN(CC(=O)NCc2ccccc2F)CC1` (stereo not shown) [compound 122, 3-[1-oxo-2-(1-(1-(2-oxo-2-(2-flurobenzyl)aminoethyl)piperidine-4-yl))hydrazino]ethyl-4-cyanothiazolidine, bis-trifluoroacetate]: the IC50 is 0.51 ± 0.05 µM.

Consider `N#Cc1ccc(NC(=O)CNC2CCC(N(N)CC(=O)N3CSCC3C#N)CC2)cc1` (stereo not shown) [Compound No. 112, 3-[1-oxo-2-[1-(4-(2-oxo-2-(4-cyanophenyl)aminoethyl)aminocyclohex-1-yl)]hydrazino]ethyl-4-cyanothiazolidine bis-trifluoroacetate], for which the IC50 amounted to 1.47 ± 0.07 µM.

Take `N#CC1CSCN1C(=O)CN(N)C1CCC(NC(=O)c2ccc(F)cc2)CC1.O=C(O)C(F)(F)F` (stereo not shown) [Compound No. 100, 3-[1-oxo-2-[1-(4-fluorobenzoyl)aminocyclohexan-4-yl)]hydrazino]ethyl-4-cyanothiazolidine trifluoroacetate]: the IC50 is 0.93 ± 0.015 µM.

As for `N#CC1CSCN1C(=O)CN(N)C1CCN(Cc2ccccc2)CC1` (stereo not shown) [Compound No. 81, 3-[1-Oxo-2-[1-(1-phenylmethyl-piperidin-4-yl)]-hydrazino]-ethyl-4-cyanothiazolidine trifluoroacetate], the IC50 worked out at 1.63 ± 0.15 µM.

On to `N#CC1CSCN1C(=O)CN1CCCCN1` (stereo not shown) [Compound No. 83], for which the IC50 stood at 82 ± 18 µM.

Take `N#CC1CSCN1C(=O)CN(N)C1CCNCC1` (stereo not shown) [Compound No. 72, 3-[1-Oxo-2-(1-(4-piperidinyl) hydrazino)]ethyl-4-cyanothiazolidine bis trifluoroacetate]: the IC50 stood at 12.1 ± 0.13 µM.

Consider `CCC(C)N(N)CC(=O)N1CSCC1C#N` (stereo not shown) [Compound No. 23, 3-[1-Oxo-2-((1-methylpropyl)hydrazino)]ethyl-4-cyano thiazolidine trifluoroacetate], for which the IC50 worked out at 2.94 ± 0.15 µM.

With `CS(=O)(=O)NC1CCC(N(N)CC(=O)N2CSCC2C#N)CC1` (stereo not shown) [Compound No. 78, 3-[1-Oxo-2-(1-(1-methanesulphonylamino-4-cyclohexyl) hydrazino)]ethyl-4-cyanothiazolidine trifluoroacetate], the IC50 came out at 0.25 ± 0.02 µM.

Consider `CCN(N)CC(=O)N1CCCC1C#N` (stereo not shown) [Compound No. 14, 1-[1-Oxo-2-((1-ethyl)hydrazino)]ethyl-2-cyano pyrrolidine trifluoroacetate], for which the IC50 is 93.7 ± 5.54 µM.

For the molecule `Cc1cnc(C(=O)NC2CCC(N(N)CC(=O)N3CSCC3C#N)CC2)cn1` (stereo not shown) [compound 139, 3-[1-oxo-2-(1-(1-(5-methylpyrazine-2-ylcarbonyl)amino-4-cyclohexyl)) hydrazino]ethyl-4-cyanothiazolidine, tris-trifluoroacetate], the IC50 was 0.485 ± 0.01 µM.

As for `N#CC1CSCN1C(=O)CN(N)C1CCN(S(=O)(=O)c2ccc(Cl)cc2)CC1` (stereo not shown) [Compound No. 62, 3-[1-Oxo-2-[1-(1-(4-chlorophenylsulphonyl)-piperidin-4-yl)]hydrazino]ethyl-4-cyanothiazolidine trifluoroacetate], the IC50 was 1.54 ± 0.34 µM.

(Values after US20040106802A1, “Novel compounds and therapeutic uses thereof” (TORRENT PHARMACEUTICALS LTD., priority 2002, published 2004).)
